Data on two compounds can be found in publication PMC7464159, “Triple Negative Breast Cancer and Breast Epithelial Cells Differentially Reprogram Glucose and Lipid Metabolism upon Treatment with Triterpenic Acids” (Biomolecules, 2020).

Experiment [1] deals with MDA-MB-231 cells. Nature of the experiment: MTT cell viability assay. Type of experiment: cell-based. The note with it: Homo sapiens, mean ± SD, read-out: IC50 cell viability inhibition. The method, then:
(§1) Cells were cultured in 96-well plates at 2 × 10^5 cells/mL (100 µL per well) and treated the following day with either BA or UA (0.5–50 µM), for 24 h, 48 h and 72 h. Vehicle solvent control cells received DMSO (0.25% v/v). Cell viability was estimated by the 3-(4,5-dimethylthiazol-2-yl)-2,5-diphenyltetrazolium bromide (MTT) assay as previously described by. After treatment incubation, 20 μL of MTT stock solution was added to each well (final concentration 0.5 mg/mL), and plates were incubated at 37 °C, for 4 h. Then, the medium was removed, and the formed formazan crystals were dissolved using a DMSO/ethanol (1:1) solution. Finally, absorbance of the formed product was measured at 570 nm using a microplate reader (MultiSkan FC, Thermo Fisher Scientific, Rochester, NY, USA). The IC50, defined as the concentration necessary to cause 50% inhibition of cell viability, was calculated using GraphPad Prism 5.0 (GraphPad Prism Software Inc., San Diego, CA, USA), by plotting the percentage of cell viability as a function of sample concentration logarithm. Three independent experiments were performed for each treatment.

Experiment [2] concerns MCF-10A cells. Nature of the experiment: MTT cell viability assay. It counts as cell-based. The settings on record: Homo sapiens, mean ± SD, read-out: IC50 cell viability inhibition. On the procedure:
as §1
In general terms: Formazan colour is commonly taken as a measure of viable cells.

Experiment [3] concerns MDA-MB-231 cells. Nature of the experiment: 1H NMR analysis of organic cell extracts (lipids). Type of experiment: cell-based, human. The settings on record: 48 h; for levels of neutral lipids (cholesteryl esters and triglycerides): vs control; for plasmalogen lipids: high exposure concentration. On the procedure:
(§2) MDA-MB-231 and MCF-10A cells were seeded in 10-cm-diameter Petri dishes at a density of 6 × 10^5 cells/mL (10 mL per dish) and cultured for 24 h at 37 °C. Cells were then incubated for 48 h with BA (5 and 15 µM) or UA (10 and 20 µM). Vehicle solvent control cells received DMSO (0.10% v/v). Samples were collected immediately after 48 h incubation or, to assess cellular recovery, medium was replaced with fresh growth medium (without TAs), and cells were incubated for additional 24 h before collection (48 + 24 h samples). Four independent assays were performed.
(§3) After incubation, culture medium was collected and centrifuged (1000× g, 5 min) and the supernatant stored at −80 °C until analysis. Culture medium without cells was placed under the same conditions and collected. Cell extraction was performed as described by Carrola et al.. Briefly, cells were washed four times with PBS and extracted with a mixture of methanol:chloroform:water (1:1:0.7). The resulting polar and organic phases were collected and then dried under vacuum or under a stream of nitrogen gas, respectively. All samples were stored at −80 °C and, at the time of analysis, dried polar extracts were reconstituted in 600 µL of deuterated phosphate buffer (100 mM, pH 7.4) containing 0.1 mM TSP-d4, while organic extracts were reconstituted in deuterated chloroform containing 0.03% TMS. Regarding medium samples, 540 μL were mixed with 60 μL of D2O containing 0.25% TSP-d4. Prior to analysis, 550 μL of each sample were transferred to 5 mm NMR tubes.
(§4) ^1H NMR spectra of all samples were acquired on a Bruker Avance III HD 500 NMR spectrometer (University of Aveiro, Portuguese NMR Network) operating at 500.13 MHz for ^1H observation equipped with a 5 mm TXI probe. Standard 1D spectra (Bruker pulse programs ‘noesypr1d’, with water suppression, for medium samples and aqueous extracts, and ‘zg’ for organic extracts) were recorded with a 7002.8 Hz spectral width, 32 k data points, a 2 s relaxation delay and 512 scans. Spectral processing comprised exponential multiplication with 0.3 Hz line broadening, zero filling to 64 k data points, manual phasing, baseline correction, and chemical shift calibration to the TSP or TMS signal at 0 ppm. 2D ^1H-^1H total correlation (TOCSY) spectra, ^1H-^13C heteronuclear single quantum correlation (HSQC) spectra and J-resolved spectra were also registered for selected samples to assist spectral assignment. Metabolites were identified with the support of 2D spectra and the spectral reference databases BBIOREFCODE-2-0-0 (Bruker Biospin, Rheinstetten, Germany) and HMDB [28]. Selected signals were then integrated using the AmixViewer software […] (version 3.9.14, Bruker BioSpin, Rheinstetten, Germany) and normalized by the total spectral area. The magnitude of each metabolite change was assessed through the percentage of variation (and its respective error) in exposed samples relatively to controls, and through the effect size (ES) adjusted for small sample numbers (and respective standard error). Metabolite variations with absolute ES greater than 0.8 were expressed in a heatmap, colored as a function of the percentage of variation, employing the R statistical software.

Experiment [4] deals with MCF-10A cells. Nature of the experiment: 1H NMR analysis of organic cell extracts (lipids). The note with it: for levels of triglycerides: vs control cells. Type of experiment: cell-based, human. On the procedure:
as §2, §3, §4

The subject of experiment [5] is MDA-MB-231 cells. More on the design: method as in PMID 22407812. The settings on record: BA 2.5–10 μM, 48 h; cited from earlier work.
Experiment [6] concerns MCF-10A cells. More on the design: method as in PMID 29802332, PMID 30684465. The note with it: previous studies; cited from earlier work.

Read-outs that look alike come from different tables or passages of the source.

One may read the IC50 as the concentration at which inhibition is half-maximal. Turning to `C[C@H]1[C@H](C)CC[C@]2(C(=O)O)CC[C@]3(C)C(=CC[C@@H]4[C@@]5(C)CC[C@H](O)C(C)(C)[C@@H]5CC[C@]43C)[C@H]12` [UA, ursolic acid], the IC50 worked out at 24.5 ± 4.61 µM in experiment [1] (MDA-MB-231, 24 h); 17.2 ± 0.86 µM in experiment [1] (MDA-MB-231, 48 h); 17.7 ± 2.81 µM in experiment [1] (MDA-MB-231, 72 h); 37.9 ± 8.93 µM in experiment [2] (24 h); 18.7 ± 3.27 µM in experiment [2] (48 h); 21.5 ± 4.55 µM in experiment [2] (72 h). Also, in experiment [3], the “levels of neutral lipids (cholesteryl esters and triglycerides)” value is on record as “decreased levels”. The plasmalogen lipids entry in experiment [3] is “decreased levels”. Moreover, the levels of triglycerides result in experiment [4] is on record as “increases”.

On to `C=C(C)[C@@H]1CC[C@]2(C(=O)O)CC[C@]3(C)[C@H](CC[C@@H]4[C@@]5(C)CC[C@H](O)C(C)(C)[C@@H]5CC[C@]43C)[C@@H]12` [BA, betulinic acid], for which the IC50 in experiment [1] (MDA-MB-231, 24 h) came to 31.3 ± 5.94 µM; in experiment [1] (MDA-MB-231, 48 h), 13.2 ± 2.3 µM; in experiment [1] (MDA-MB-231, 72 h), 8.39 ± 0.98 µM; in experiment [2] (24 h) it was 22.4 ± 6.49 µM; in experiment [2] (48 h), 11 ± 1.83 µM; in experiment [2] (72 h), 2.38 ± 1.36 µM. The cell cycle effect result in experiment [5] was “cell cycle arrest at G2/M phase”. In experiment [6], the “influence on MCF-10A cells viability” value is on record as “no influence”. In experiment [3], the “levels of neutral lipids (cholesteryl esters and triglycerides)” value was “decreased significantly”. Further, in experiment [3] (BA), the “total glycerophospholipids and free cholesterol” value is on record as “increased”. Also, the plasmalogen lipids entry in experiment [3] was “decreased”. The “levels of glycerophospholipids (including plasmalogen)” value in experiment [4] (BA) is on record as “decreased levels”. For the same compound, the “relative amount of free cholesterol” value in experiment [4] (BA) is listed as “increased”. For the same compound, the levels of triglycerides result in experiment [4] is given as “increased levels”.
